The NIST ThermoML archive (doi:10.1021/je400486p)

Assay: xn = mol fraction of the nth substance listed
Conditions: 101.3 kPa, Liquid; for viscosity: Concentric cylinders viscometry; for mass density: Vibrating tube method

COCCOCCOCCOCCOC [2,5,8,11,14-pentaoxapentadecane] + CCC(C)O
Conditions	mass density [kg/m3]	viscosity [mPa·s]
288.15 K, x2 = 0	1015.63	4.341
288.15 K, x2 = 0.1007	1006.23	4.092
288.15 K, x2 = 0.2003	995.702	3.792
288.15 K, x2 = 0.3015	983.46	3.531
288.15 K, x2 = 0.3991	969.921	3.342
288.15 K, x2 = 0.5011	953.53	3.157
288.15 K, x2 = 0.6024	934.399	2.972
288.15 K, x2 = 0.6997	912.674	2.853
288.15 K, x2 = 0.7998	885.897	2.874
288.15 K, x2 = 0.9004	852.63	3.166
293.15 K, x2 = 0	1011	3.834
293.15 K, x2 = 0.1007	1001.61	3.582
293.15 K, x2 = 0.2003	991.093	3.32
293.15 K, x2 = 0.3015	978.877	3.099
293.15 K, x2 = 0.3991	965.365	2.941
293.15 K, x2 = 0.5011	949.011	2.776
293.15 K, x2 = 0.6024	929.939	2.61
293.15 K, x2 = 0.6997	908.32	2.498
293.15 K, x2 = 0.7998	881.561	2.497
293.15 K, x2 = 0.9004	848.418	2.705
298.15 K, x2 = 0	1006.36	3.38
298.15 K, x2 = 0.1007	996.991	3.158
298.15 K, x2 = 0.2003	986.495	2.937
298.15 K, x2 = 0.3015	974.305	2.75
298.15 K, x2 = 0.3991	960.825	2.603
298.15 K, x2 = 0.5011	944.498	2.461
298.15 K, x2 = 0.6024	925.479	2.316
298.15 K, x2 = 0.6997	903.877	2.21
298.15 K, x2 = 0.7998	877.228	2.187
298.15 K, x2 = 0.9004	844.144	2.337
303.15 K, x2 = 0	1001.73	3.004
303.15 K, x2 = 0.1007	992.377	2.805
303.15 K, x2 = 0.2003	981.894	2.627
303.15 K, x2 = 0.3015	969.723	2.472
303.15 K, x2 = 0.3991	956.258	2.344
303.15 K, x2 = 0.5011	939.966	2.205
303.15 K, x2 = 0.6024	920.978	2.068
303.15 K, x2 = 0.6997	899.43	1.967
303.15 K, x2 = 0.7998	872.81	1.933
303.15 K, x2 = 0.9004	839.81	2.037
308.15 K, x2 = 0	997.104	2.691
308.15 K, x2 = 0.1007	987.755	2.513
308.15 K, x2 = 0.2003	977.28	2.363
308.15 K, x2 = 0.3015	965.119	2.229
308.15 K, x2 = 0.3991	951.674	2.111
308.15 K, x2 = 0.5011	935.407	1.984
308.15 K, x2 = 0.6024	916.445	1.859
308.15 K, x2 = 0.6997	894.917	1.762
308.15 K, x2 = 0.7998	868.357	1.72
308.15 K, x2 = 0.9004	835.418	1.786
313.15 K, x2 = 0	992.481	2.426
313.15 K, x2 = 0.1007	983.135	2.269
313.15 K, x2 = 0.2003	972.669	2.139
313.15 K, x2 = 0.3015	960.509	2.022
313.15 K, x2 = 0.3991	947.072	1.914
313.15 K, x2 = 0.5011	930.813	1.796
313.15 K, x2 = 0.6024	911.86	1.681
313.15 K, x2 = 0.6997	890.367	1.59
313.15 K, x2 = 0.7998	863.83	1.54
313.15 K, x2 = 0.9004	830.95	1.575
318.15 K, x2 = 0	987.859	2.199
318.15 K, x2 = 0.1007	978.511	2.069
318.15 K, x2 = 0.2003	968.041	1.949
318.15 K, x2 = 0.3015	955.883	1.836
318.15 K, x2 = 0.3991	942.446	1.73
318.15 K, x2 = 0.5011	926.193	1.629
318.15 K, x2 = 0.6024	907.25	1.529
318.15 K, x2 = 0.6997	885.759	1.445
318.15 K, x2 = 0.7998	859.246	1.385
318.15 K, x2 = 0.9004	826.396	1.397
323.15 K, x2 = 0	983.234	2.006
323.15 K, x2 = 0.1007	973.877	1.892
323.15 K, x2 = 0.2003	963.397	1.787
323.15 K, x2 = 0.3015	951.237	1.687
323.15 K, x2 = 0.3991	937.792	1.591
323.15 K, x2 = 0.5011	921.533	1.495
323.15 K, x2 = 0.6024	902.591	1.402
323.15 K, x2 = 0.6997	881.097	1.32
323.15 K, x2 = 0.7998	854.581	1.259
323.15 K, x2 = 0.9004	821.735	1.243

CN1CCCC1=O [N-methylpyrrolidone] + CCC(C)O
Conditions	mass density [kg/m3]	viscosity [mPa·s]
288.15 K, x2 = 0	1037.3	1.99
288.15 K, x2 = 0.1049	1014.52	1.984
288.15 K, x2 = 0.2001	993.63	1.974
288.15 K, x2 = 0.3009	971.257	1.972
288.15 K, x2 = 0.4019	948.589	2.005
288.15 K, x2 = 0.5003	926.282	2.032
288.15 K, x2 = 0.5995	903.599	2.118
288.15 K, x2 = 0.7004	880.362	2.302
288.15 K, x2 = 0.7985	857.64	2.618
288.15 K, x2 = 0.899	834.259	3.227
293.15 K, x2 = 0	1032.84	1.823
293.15 K, x2 = 0.1049	1010.11	1.815
293.15 K, x2 = 0.2001	989.247	1.801
293.15 K, x2 = 0.3009	966.914	1.798
293.15 K, x2 = 0.4019	944.287	1.817
293.15 K, x2 = 0.5003	922.02	1.839
293.15 K, x2 = 0.5995	899.376	1.905
293.15 K, x2 = 0.7004	876.183	2.048
293.15 K, x2 = 0.7985	853.51	2.29
293.15 K, x2 = 0.899	830.183	2.757
298.15 K, x2 = 0	1028.38	1.679
298.15 K, x2 = 0.1049	1005.69	1.664
298.15 K, x2 = 0.2001	984.854	1.652
298.15 K, x2 = 0.3009	962.556	1.647
298.15 K, x2 = 0.4019	939.97	1.655
298.15 K, x2 = 0.5003	917.742	1.67
298.15 K, x2 = 0.5995	895.133	1.72
298.15 K, x2 = 0.7004	871.975	1.832
298.15 K, x2 = 0.7985	849.341	2.019
298.15 K, x2 = 0.899	826.054	2.368
303.15 K, x2 = 0	1023.92	1.555
303.15 K, x2 = 0.1049	1001.27	1.538
303.15 K, x2 = 0.2001	980.46	1.524
303.15 K, x2 = 0.3009	958.194	1.514
303.15 K, x2 = 0.4019	935.644	1.516
303.15 K, x2 = 0.5003	913.448	1.522
303.15 K, x2 = 0.5995	890.869	1.56
303.15 K, x2 = 0.7004	867.739	1.645
303.15 K, x2 = 0.7985	845.132	1.792
303.15 K, x2 = 0.899	821.864	2.051
308.15 K, x2 = 0	1019.46	1.444
308.15 K, x2 = 0.1049	996.845	1.427
308.15 K, x2 = 0.2001	976.091	1.411
308.15 K, x2 = 0.3009	953.86	1.399
308.15 K, x2 = 0.4019	931.323	1.393
308.15 K, x2 = 0.5003	909.136	1.397
308.15 K, x2 = 0.5995	886.575	1.424
308.15 K, x2 = 0.7004	863.468	1.489
308.15 K, x2 = 0.7985	840.874	1.598
308.15 K, x2 = 0.899	817.592	1.786
313.15 K, x2 = 0	1015	1.346
313.15 K, x2 = 0.1049	992.413	1.327
313.15 K, x2 = 0.2001	971.652	1.311
313.15 K, x2 = 0.3009	949.443	1.297
313.15 K, x2 = 0.4019	926.949	1.285
313.15 K, x2 = 0.5003	904.8	1.285
313.15 K, x2 = 0.5995	882.258	1.303
313.15 K, x2 = 0.7004	859.157	1.351
313.15 K, x2 = 0.7985	836.567	1.431
313.15 K, x2 = 0.899	813.284	1.566
318.15 K, x2 = 0	1010.53	1.259
318.15 K, x2 = 0.1049	987.978	1.239
318.15 K, x2 = 0.2001	967.237	1.221
318.15 K, x2 = 0.3009	945.05	1.206
318.15 K, x2 = 0.4019	922.578	1.19
318.15 K, x2 = 0.5003	900.445	1.186
318.15 K, x2 = 0.5995	877.912	1.197
318.15 K, x2 = 0.7004	854.81	1.23
318.15 K, x2 = 0.7985	832.207	1.286
318.15 K, x2 = 0.899	808.882	1.379
323.15 K, x2 = 0	1006.06	1.182
323.15 K, x2 = 0.1049	983.533	1.161
323.15 K, x2 = 0.2001	962.815	1.141
323.15 K, x2 = 0.3009	940.651	1.124
323.15 K, x2 = 0.4019	918.196	1.104
323.15 K, x2 = 0.5003	896.069	1.098
323.15 K, x2 = 0.5995	873.531	1.103
323.15 K, x2 = 0.7004	850.415	1.124
323.15 K, x2 = 0.7985	827.785	1.162
323.15 K, x2 = 0.899	804.404	1.222
